Source: EP0169405A2, “Use of substituted pyrimido (5,4-d) pyrimidines” (BOEHRINGER INGELHEIM KG, priority 1984, dated 1986)
Where two headings read alike, the source gives them in different places.

Experiments:
[1] = Acute toxicity in the mouse (LD50); conditions: in vivo
[2] = tested on: Störung des Kurzzeitgedächtnisses; test: Reversal of scopolamine-induced disturbance of short-term memory; type: in vivo; conditions: po; scopolamine-induced memory disturbance is reversed; read-out: niedrigste wirksame Dosis (wirksam ab)
Excerpt: In der Formel I bedeutet • ^R1 einen Cl-C3-Alkoxy-(C2-C3-alkyl)rest, • ^R2 einen C2-C6-Hydroxyalkylrest oder einen C3-Dihydroxy- alkylrest, • ^R3 einen C1-C3-Alkoxy-(C2-C3-alkyl) rest oder einen C2-C3-Hydroxyalkylrest, • R4 einen Dialkylaminorest, wobei jeder Alkylrest 1 bis 6 C-Atome enthalten kann, die Diallyl- oder Di-(methoxyethyl)-aminogruppe oder einen gegebenenfalls durch eine Methylgruppe substituierten Pyrrolidino-, Piperidino-, Hexamethylenamino-, 1', 2', 5', 6'-Tetrahydropyridino-, Morpholino-, Thiomorpholino- oder 1-Oxidothiomorpholinoring. Die Verbindungen können als freie Basen oder als physiologisch verträgliche Säureadditionssalze mit anorganischen oder organischen Säuren vorliegen. Es wurde nun in tierexperimentellen Untersuchungen gefunden, daß die Verbindungen überraschenderweise besonders zur Beeinflussung eingeschränkter zerebraler Leistungsfähigkeit geeignet sind. Die folgenden Ergebnisse stützen diese Aussage: • 1. Durch gabe des muskarinen cholinergen Antagonisten Scopolamin wird eine Störung des Kurzzeitgedächtnisses bzw. des Übergangs von Inhalten des Kurzzeit- in das sogenannte Langzeitgedächnis erzeugt. Diese Einschränkung wird durch die neuen Verbindungen aufgehoben. […]

SMILES	LD50 ([1]; iv, read-out: i.v. LD50) [mg/kg]	LD50 ([1]; po, read-out: p.o. LD50) [mg/kg]	minimal effective dose [2] [mg/kg]
CCN(CC)c1nc(N(CCO)CCOC)nc2c(N(CC)CC)nc(N(CCO)CCOC)nc12 [Verbindung (B)]	133	> 3000	–
COc1ccc(C(=O)N2CCCC2=O)cc1 [Aniracetam]	–	–	50
NC(=O)CN1CCCC1=O [Piracetam]	–	–	150
